≈ marks a conversion by molar mass, not a printed value.
How the values were obtained:
Type in all cases: functional
Candida parapsilosis = test: Antifungal activity against Candida parapsilosis ATCC 22019 assessed as inhibition of fungal growth incubated for 24 hrs by CLSI based microbroth dilution method; conditions: Lodderomyces parapsilosis
Candida albicans [1] = test: Antifungal activity against Candida albicans assessed as inhibition of fungal growth incubated for 24 hrs by CLSI based microbroth dilution method
Candida tropicalis = test: Antifungal activity against Candida tropicalis assessed as inhibition of fungal growth incubated for 24 hrs by CLSI based microbroth dilution method
Aspergillus fumigatus = test: Antifungal activity against Aspergillus fumigatus assessed as inhibition of fungal growth incubated for 24 hrs by CLSI based microbroth dilution method
Candida albicans [2] = test: Antifungal activity against Candida albicans ATCC 90023 assessed as inhibition of fungal growth incubated for 24 hrs by CLSI based microbroth dilution method

Compound	MIC (Candida parapsilosis)	MIC (Candida albicans [1])	MIC (Candida tropicalis)	MIC (Aspergillus fumigatus)	MIC (Candida albicans [2])
C#CCn1c(CCCC)nc(Cl)c1/C=N/Nc1ccc2c3c(cccc13)C(=O)N(CCO)C2=O	67 µM (≈ 32 µg/mL)	67 µM (≈ 32 µg/mL)	2 µM (≈ 0.956 µg/mL)	8 µM (≈ 3.82 µg/mL)	17 µM (≈ 8.13 µg/mL)
O=C1c2cccc3c(N/N=C/c4ccccn4)ccc(c23)C(=O)N1CCO	711 µM (≈ 256 µg/mL)	355 µM (≈ 128 µg/mL)	711 µM (≈ 256 µg/mL)	355 µM (≈ 128 µg/mL)	355 µM (≈ 128 µg/mL)
O=C1c2cccc3c(N/N=C/c4ccc(CO)o4)ccc(c23)C(=O)N1CCO	21 µM (≈ 7.97 µg/mL)	21 µM (≈ 7.97 µg/mL)	5 µM (≈ 1.9 µg/mL)	10 µM (≈ 3.79 µg/mL)	5 µM (≈ 1.9 µg/mL)
O=C1c2cccc3c(N/N=C/c4cc(Cl)ccc4O)ccc(c23)C(=O)N1CCO	626 µM (≈ 257 µg/mL)	626 µM (≈ 257 µg/mL)	313 µM (≈ 128 µg/mL)	313 µM (≈ 128 µg/mL)	313 µM (≈ 128 µg/mL)
O=C1c2cccc3c(N/N=C/C=C/c4ccc([N+](=O)[O-])o4)ccc(c23)C(=O)N1CCO	152 µM (≈ 63.9 µg/mL)	9 µM (≈ 3.78 µg/mL)	38 µM (≈ 16 µg/mL)	76 µM (≈ 31.9 µg/mL)	38 µM (≈ 16 µg/mL)
C[n+]1ccc(/C=N/Nc2ccc3c4c(cccc24)C(=O)N(CCO)C3=O)cc1	64 µM	16 µM	255 µM	127 µM	8 µM
C=CCn1c(CCCC)nc(Cl)c1/C=N/Nc1ccc2c3c(cccc13)C(=O)N(CCO)C2=O	134 µM (≈ 64.3 µg/mL)	67 µM (≈ 32.2 µg/mL)	2 µM (≈ 0.96 µg/mL)	17 µM (≈ 8.16 µg/mL)	33 µM (≈ 15.8 µg/mL)
O=C1c2cccc3c(N/N=C/c4c[nH]cn4)ccc(c23)C(=O)N1CCO	23 µM (≈ 8.04 µg/mL)	183 µM (≈ 63.9 µg/mL)	46 µM (≈ 16.1 µg/mL)	183 µM (≈ 63.9 µg/mL)	92 µM (≈ 32.1 µg/mL)
CCCCCCCn1c(CCCC)nc(Cl)c1/C=N/Nc1ccc2c3c(cccc13)C(=O)N(CCO)C2=O	238 µM (≈ 128 µg/mL)	119 µM (≈ 64 µg/mL)	60 µM (≈ 32.3 µg/mL)	119 µM (≈ 64 µg/mL)	119 µM (≈ 64 µg/mL)
CCCCc1nc(Cl)c(/C=N/Nc2ccc3c4c(cccc24)C(=O)N(CCO)C3=O)[nH]1	291 µM (≈ 128 µg/mL)	36 µM (≈ 15.8 µg/mL)	73 µM (≈ 32.1 µg/mL)	73 µM (≈ 32.1 µg/mL)	18 µM (≈ 7.92 µg/mL)
O=C1c2cccc3c(N/N=C/c4cccs4)ccc(c23)C(=O)N1CCO	175 µM (≈ 63.9 µg/mL)	175 µM (≈ 63.9 µg/mL)	351 µM (≈ 128 µg/mL)	175 µM (≈ 63.9 µg/mL)	351 µM (≈ 128 µg/mL)
O=C1c2cccc3c(N/N=C/c4ccc(O)c([N+](=O)[O-])c4)ccc(c23)C(=O)N1CCO	5 µM (≈ 2.1 µg/mL)	5 µM (≈ 2.1 µg/mL)	5 µM (≈ 2.1 µg/mL)	2 µM (≈ 0.841 µg/mL)	10 µM (≈ 4.2 µg/mL)
O=C1c2cccc3c(N/N=C/c4ccc([N+](=O)[O-])s4)ccc(c23)C(=O)N1CCO	78 µM (≈ 32 µg/mL)	39 µM (≈ 16 µg/mL)	156 µM (≈ 64 µg/mL)	19 µM (≈ 7.8 µg/mL)	78 µM (≈ 32 µg/mL)
CCCCc1nc(Cl)c(/C=N/Nc2ccc3c4c(cccc24)C(=O)N(CCO)C3=O)n1CC	548 µM (≈ 256 µg/mL)	274 µM (≈ 128 µg/mL)	34 µM (≈ 15.9 µg/mL)	68 µM (≈ 31.8 µg/mL)	137 µM (≈ 64.1 µg/mL)
CCN1C(=O)c2cccc3c(N/N=C/c4ccc([N+](=O)[O-])o4)ccc(c23)C1=O	168 µM (≈ 63.6 µg/mL)	42 µM (≈ 15.9 µg/mL)	84 µM (≈ 31.8 µg/mL)	338 µM (≈ 128 µg/mL)	84 µM (≈ 31.8 µg/mL)
CCCCc1nc(Cl)c(/C=N/Nc2ccc3c4c(cccc24)C(=O)N(CCO)C3=O)n1Cc1ccccc1Cl	57 µM (≈ 32.2 µg/mL)	57 µM (≈ 32.2 µg/mL)	57 µM (≈ 32.2 µg/mL)	227 µM (≈ 128 µg/mL)	4 µM (≈ 2.26 µg/mL)
CCCCc1nc(Cl)c(/C=N/Nc2ccc3c4c(cccc24)C(=O)N(CCO)C3=O)n1Cc1ccc(Cl)cc1	57 µM (≈ 32.2 µg/mL)	57 µM (≈ 32.2 µg/mL)	28 µM (≈ 15.8 µg/mL)	57 µM (≈ 32.2 µg/mL)	7 µM (≈ 3.95 µg/mL)
CCCCc1nc(Cl)c(/C=N/Nc2ccc3c4c(cccc24)C(=O)N(CCO)C3=O)n1Cc1ccc(F)cc1	58 µM (≈ 31.8 µg/mL)	58 µM (≈ 31.8 µg/mL)	58 µM (≈ 31.8 µg/mL)	117 µM (≈ 64.1 µg/mL)	4 µM (≈ 2.19 µg/mL)
CCCCCCCCN1C(=O)c2cccc3c(N/N=C(\C)Cn4c([N+](=O)[O-])cnc4C)ccc(c23)C1=O	1020 µM (≈ 512 µg/mL)	1020 µM (≈ 512 µg/mL)	1020 µM (≈ 512 µg/mL)	1020 µM (≈ 512 µg/mL)	1020 µM (≈ 512 µg/mL)
NNc1ccc2c3c(cccc13)C(=O)N(CCO)C2=O	236 µM (≈ 64 µg/mL)	118 µM (≈ 32 µg/mL)	118 µM (≈ 32 µg/mL)	118 µM (≈ 32 µg/mL)	118 µM (≈ 32 µg/mL)
C=CCN1C(=O)c2cccc3c(N/N=C(\C)Cn4c([N+](=O)[O-])cnc4C)ccc(c23)C1=O	1190 µM (≈ 515 µg/mL)	1190 µM (≈ 515 µg/mL)	1190 µM (≈ 515 µg/mL)	595 µM (≈ 257 µg/mL)	1190 µM (≈ 515 µg/mL)
C#CCN1C(=O)c2cccc3c(N/N=C(\C)Cn4c([N+](=O)[O-])cnc4C)ccc(c23)C1=O	1180 µM (≈ 510 µg/mL)	1180 µM (≈ 510 µg/mL)	1180 µM (≈ 510 µg/mL)	296 µM (≈ 127 µg/mL)	1180 µM (≈ 510 µg/mL)
O=C1c2cccc3c(N/N=C/c4cnc(-c5ccccc5)s4)ccc(c23)C(=O)N1CCO	5 µM (≈ 2.21 µg/mL)	87 µM (≈ 38.5 µg/mL)	87 µM (≈ 38.5 µg/mL)	44 µM (≈ 19.5 µg/mL)	22 µM (≈ 9.74 µg/mL)

— ChEMBL document CHEMBL5506069, “A Unique Hybridization Route to Access Hydrazylnaphthalimidols as Novel Structural Scaffolds of Multitargeting Broad-Spectrum Antifungal Candidates” (J Med Chem, 2024)
